From ChEMBL document CHEMBL4340572, “Gentiopicroside isolated from Gentiana scabra Bge. inhibits adipogenesis in 3T3-L1 cells and reduces body weight in diet-induced obese mice” (Bioorg Med Chem Lett, 2019) come the findings set out here.

Structures are written as SMILES. The source made the active and inactive calls. The rule behind the calls is not given here.

Usually inhibition stands for the drop in the measured response relative to a control, in per cent.

The test system of series [1] is 3T3-L1. Description: Antiinflammatory activity in mouse 3T3L1 cells assessed as reduction in IL-6 mRNA expression up to 10 uM incubated for 8 days followed by compound wash out measured by RT-PCR method. It is filed as functional, cell-based.
Series [2] has as its system 3T3-L1. Description: Downregulation of FABP4 mRNA expression in mouse 3T3L1 cells up to 10 uM incubated for 8 days followed by compound wash out measured by RT-PCR method. Format: functional, cell-based.
The test system of series [3] is 3T3-L1. Briefly: Anti-adipogenic activity in mouse 3T3L1 cells grown in differentiation media assessed as decrease in lipid accumulation incubated for 8 days by Oil Red O staining based method. It is filed as functional, cell-based.
In series [4] the test system is 3T3-L1. Description: Cytotoxicity against mouse 3T3L1 cells assessed as reduction in cell viability up to 10 uM. Format: cell-based.
Series [5] concerns 3T3-L1. Briefly: Downregulation of DGAT2 mRNA expression in mouse 3T3L1 cells up to 10 uM incubated for 8 days followed by compound wash out measured by RT-PCR method. Format: functional, cell-based.
For series [6], the system named is 3T3-L1. Description: Antiinflammatory activity in mouse 3T3L1 cells assessed as reduction in TNFalpha mRNA expression up to 10 uM incubated for 8 days followed by compound wash out measured by RT-PCR method. It is filed as functional, cell-based.
Series [7] deals with 3T3-L1. Briefly: Inhibition of cell differentiation in mouse 3T3L1 cells assessed as reduction in pre-adipocyte differentiation into matured adipocytes at 5 uM incubated for 8 days followed by compound wash out measured by oil red O staining based method relative to control. The note with it: 3T3-L1, 192 h. Format: functional.
In series [8] the test system is 3T3-L1. Description: Antiinflammatory activity in mouse 3T3L1 cells assessed as reduction in NFkappaB1 mRNA expression level up to 10 uM incubated for 8 days followed by compound wash out measured by RT-PCR method. It is filed as functional, cell-based.
The subject of series [9] is 3T3-L1. Description: Downregulation of PPARgamma mRNA expression in mouse 3T3L1 cells up to 10 uM incubated for 8 days followed by compound wash out measured by RT-PCR method. Format: functional, cell-based.
Series [10] deals with 3T3-L1. Description: Downregulation of SREBP-1c mRNA expression in mouse 3T3L1 cells up to 10 uM incubated for 8 days followed by compound wash out measured by RT-PCR method. Format: functional, cell-based.
For series [11], the system named is Mus musculus. Description: Antiobesity activity in HFD-induced obese C57BL/6N mouse model assessed as decrease in body weight at 50 mg/kg, po administered once daily for 12 weeks and measured every week for 12 weeks. Format: functional, organism-based.
Series [12] has as its system 3T3-L1. Briefly: Anti-adipogenic activity in mouse 3T3L1 cells grown in differentiation media assessed as decrease in lipid accumulation up to 10 uM incubated for 8 days by Oil Red O staining based method. Format: functional.
Series [13] concerns Mus musculus. Description: Antiobesity activity in HFD-induced obese C57BL/6N mouse model assessed as reduction in epididymal WAT adipocyte size at 50 mg/kg, po administered once daily for 12 weeks by H and E staining based microscopic method. It is filed as functional, organism-based.
Series [14] relates to 3T3-L1. Description: Downregulation of SCD1 mRNA expression in mouse 3T3L1 cells up to 10 uM incubated for 8 days followed by compound wash out measured by RT-PCR method. It is filed as functional, cell-based.
Series [15] relates to Mus musculus. Description: Antiobesity activity in HFD-induced obese C57BL/6N mouse model assessed as decrease in visceral fat mass at 50 mg/kg, po administered once daily for 12 weeks. It is filed as functional, organism-based.
The subject of series [16] is 3T3-L1. Description: Downregulation of FAS mRNA expression in mouse 3T3L1 cells up to 10 uM incubated for 8 days followed by compound wash out measured by RT-PCR method. Format: functional, cell-based.
In series [17] the test system is 3T3-L1. Briefly: Downregulation of LPL mRNA expression in mouse 3T3L1 cells up to 10 uM incubated for 8 days followed by compound wash out measured by RT-PCR method. It is filed as functional, cell-based.
For series [18], the system named is 3T3-L1. Briefly: Downregulation of C/EBPalpha mRNA expression in mouse 3T3L1 cells up to 10 uM incubated for 8 days followed by compound wash out measured by RT-PCR method. It is filed as functional, cell-based.
The subject of series [19] is Mus musculus. Briefly: Antiobesity activity in HFD-induced obese C57BL/6N mouse model assessed as decrease in epididymal fat mass level at 50 mg/kg, po administered once daily for 12 weeks. Format: functional, organism-based.

Consider `C=C[C@@H]1C2=CCOC(=O)C2=CO[C@H]1O[C@@H]1O[C@H](CO)[C@@H](O)[C@H](O)[C@H]1O` [GENTIOPICROSIDE], for which the outcome in series [1], in [2], in series [5], in series [6], in series [8] and in series [9] was Active. The result in series [10], in series [11], in series [13], in [14], in series [15] and in series [16] was Active. The result in series [17], in series [18] and in [19] was Active. Besides, the Activity result in series [3] was “Dose-dependent effect”; in series [4] it was “Non-Toxic”. Further, the inhibition at 5 µM in [7] is at most 72%. Besides, the “inhibition (INH)” value in [12] is reported as “<=64%”.
